# Key:
# solubility in methanol = format: physicochemical
# Experimental: The complexes of the present invention are less soluble in methanol than amphotericin B. Forty mg of the complexes of the present invention are soluble in 750 ml of methanol, whereas 100 mg of amphotericin B are soluble in 750 ml of methanol.
# [1] = solubility in methanol adjusted to pH 9.5 with triethylamine; format: physicochemical; settings: pH adjusted to 9.5 with triethylamine
Molecule,solubility in methanol (in words) (solubility in methanol; 100 mg in 750 ml of methanol),amount soluble in methanol (solubility in methanol; in 750 ml of methanol) [mg],solubility in methanol at pH 9.5 (in words) ([1]; 100 mg in 80 ml of methanol),extent of solubilization in methanol (solubility in methanol; 100 mg added to 750 ml of methanol) [%],extent of solubility in methanol at pH 9.5 ([1]; 100 mg added to 80 ml of methanol) [%]
C[C@@H]1[C@H](O)[C@@H](C)/C=C/C=C/C=C/C=C/C=C/C=C/C=C/[C@H](O[C@@H]2O[C@H](C)[C@@H](O)[C@H](N)[C@@H]2O)C[C@@H]2O[C@](O)(C[C@@H](O)C[C@@H](O)[C@H](O)CC[C@@H](O)C[C@@H](O)CC(=O)O[C@H]1C)C[C@H](O)[C@H]2C(=O)O [amphotericin B],completely soluble,100,completely soluble,,
Amphotericin B-Calcium-Oxalic Acid Complex [Example 1],,,,40,35
